{"source": "ChEMBL document CHEMBL1124708", "about": "“Glycolipids as host resistance stimulators” (1990)", "key": {"[1]": {"assay": "(§1) Log value of the protective index was calculated", "type": "functional"}, "Mus musculus [2]": {"test_system": "Mus musculus", "assay": "Protective index of Pseudomonas aeruginosa after 40 mg/kg ip administration pretreated 250 mg/kg cytoxan ip on day -4.", "type": "functional"}, "Pseudomonas aeruginosa [3]": {"test_system": "Pseudomonas aeruginosa", "assay": "Protective index against Pseudomonas aeruginosa after 40 mg/kg subcutaneous administration pretreated 250 mg/kg cytoxan intraperitoneal on day -4.", "type": "functional"}, "Pseudomonas aeruginosa [4]": {"test_system": "Pseudomonas aeruginosa", "assay": "(§2) No of CFU was determined that cause 50% lethality against Pseudomonas aeruginosa after 40 mg/kg sc administration", "type": "functional", "conditions": "route subcutaneous"}, "Mus musculus [5]": {"test_system": "Mus musculus", "assay": "No of CFU was determined that cause 50% lethality against Pseudomonas aeruginosa after 40 mg/kg ip administration", "type": "functional", "conditions": "route intraperitoneal"}, "Mus musculus [6]": {"test_system": "Mus musculus", "assay": "Protective index of Pseudomonas aeruginosa after 40 mg/kg sc administration pretreated 250 mg/kg cytoxan ip on day -4.", "type": "functional"}, "Mus musculus [7]": {"test_system": "Mus musculus", "assay": "Protective index of Pseudomonas aeruginosa after 40 mg/kg im administration pretreated 250 mg/kg cytoxan ip on day -1", "type": "functional"}, "Mus musculus [8]": {"test_system": "Mus musculus", "assay": "Protective index of Pseudomonas aeruginosa after 40 mg/kg im administration pretreated 250 mg/kg cytoxan ip on day -2", "type": "functional"}, "Mus musculus [9]": {"test_system": "Mus musculus", "assay": "protective index of Pseudomonas aeruginosa after 40 mg/kg im administration pretreated 250 mg/kg cytoxan ip on day -1", "type": "functional"}, "Mus musculus [10]": {"test_system": "Mus musculus", "assay": "Protective index of Pseudomonas aeruginosa after 40 mg/kg sc administration pretreated 250 mg/kg cytoxan ip on day -7", "type": "functional"}, "Mus musculus [11]": {"test_system": "Mus musculus", "assay": "Protective index of Pseudomonas aeruginosa after 4 mg/kg sc administration pretreated 250 mg/kg cytoxan ip", "type": "functional"}, "Mus musculus [12]": {"organism": "Mus musculus", "assay": "as §1", "type": "functional, organism-based"}, "[13]": {"assay": "as §1"}, "Mus musculus [14]": {"test_system": "Mus musculus", "assay": "Protective index Pseudomonas aeruginosa after 40 mg/kg sc administration pretreated 250 mg/kg cytoxan ip on day -4.", "type": "functional"}, "Mus musculus [15]": {"test_system": "Mus musculus", "assay": "as §2", "type": "functional", "conditions": "route subcutaneous"}}, "note": "“And” between values parts separate entries of the source, which are not always exact repeats. Equal entries are not always repeated.", "data": [{"compound": "CC(C)CCCC(C)[C@H]1CC[C@H]2C3CC=C4C[C@@H](OCCCCCCS[C@H]5O[C@@H](CO)[C@@H](O)[C@H](O)[C@H]5O)CC[C@]4(C)[C@H]3CC[C@]12C", "note": "(some centres not stated)", "values": [{"measurement": "Log PI", "setting": "[1]", "result": 1.53}]}, {"compound": "CC(C)CCCC(C)[C@H]1CC[C@H]2C3CC=C4C[C@@H](OCCCCCCS[C@@H]5O[C@@H](CO)[C@@H](O)[C@H](O)[C@@H]5O)CC[C@]4(C)[C@H]3CC[C@]12C", "note": "(stereo in doubt; form 1) [listing 1 of 2 here]", "values": [{"measurement": "PI", "setting": "Mus musculus [2]", "result": 4.75}, {"measurement": "PI", "setting": "Pseudomonas aeruginosa [3]", "result": "0.53 and 0.94"}, {"measurement": "No. of Colony forming Units", "setting": "Pseudomonas aeruginosa [4]; 40 mg/kg", "result": "56.7 and 47 and 101"}, {"measurement": "No. of Colony forming Units", "setting": "Mus musculus [5]", "result": 76}, {"measurement": "PI", "setting": "Mus musculus [6]", "result": 2.94}]}, {"compound": "CC(=O)N[C@H]1C(O)O[C@@H](COC(=O)[C@H]2CC[C@@]3(C)C(=CC[C@H]4[C@@H]5CC[C@H]([C@H](C)CCCC(C)C)[C@@]5(C)CC[C@@H]43)C2)[C@@H](O)[C@@H]1O[C@@H](C)C(=O)N[C@@H](C)C(=O)N[C@@H](CCC(=O)O)C(N)=O", "note": "(some centres not stated)", "values": [{"measurement": "PI", "setting": "Pseudomonas aeruginosa [3]", "result": 1000}, {"measurement": "No. of Colony forming Units", "setting": "Pseudomonas aeruginosa [4]", "result": 16000}]}, {"compound": "CC(C)CCCC(C)C1CCC2C3CC=C4CC(OCCCCCCSC5OCC(O)C(O)C5O)CCC4(C)C3CCC12C", "note": "(configuration not stated)", "values": [{"measurement": "PI", "setting": "Pseudomonas aeruginosa [3]", "result": 1.01}]}, {"compound": "CC(=O)NC1C(SCCCCCCOC2CCC3(C)C(=CCC4C3CCC3(C)C(C(C)CCCC(C)C)CCC43)C2)OC(CO)C(O)C1O", "note": "(stereo in doubt; form 1) [listing 1 of 2 here]", "values": [{"measurement": "PI", "setting": "Pseudomonas aeruginosa [3]", "result": "0.53 and 0.7"}, {"measurement": "No. of Colony forming Units", "setting": "Pseudomonas aeruginosa [4]; 40 mg/kg", "result": "5.67 and 7.5"}]}, {"compound": "CC(C)CCOC(=O)C1CCC2C3CC=C4CC(OCCCCCCSC5OC(CO)C(O)C(O)C5O)CCC4(C)C3CCC12C", "note": "(configuration not stated)", "values": [{"measurement": "PI", "setting": "Pseudomonas aeruginosa [3]", "result": 1.01}]}, {"compound": "CC(C)CCCC(C)[C@H]1CC[C@H]2C3CC=C4C[C@@H](OCCCCCCS[C@@H]5O[C@@H](CO)[C@@H](O)[C@H](O)[C@H]5O)CC[C@]4(C)[C@H]3CC[C@]12C", "note": "(some centres not stated)", "values": [{"measurement": "PI", "setting": "Mus musculus [7]", "result": 2.29}, {"measurement": "PI", "setting": "Mus musculus [8]", "result": 9.52}, {"measurement": "PI", "setting": "Mus musculus [9]", "result": 2.29}, {"measurement": "PI", "setting": "Mus musculus [10]", "result": 4.81}, {"measurement": "PI", "setting": "Mus musculus [11]", "result": 2.59}, {"measurement": "Log PI", "setting": "[1]", "result": 4.02}]}, {"compound": "CC(C)CCC[C@@H](C)[C@H]1CC[C@H]2[C@@H]3CC=C4C[C@@H](OCCCCCCS[C@@H]5O[C@@H](CO)[C@@H](O[C@@H]6O[C@@H](CO)[C@H](O)[C@H](O)[C@@H]6O)[C@H](O)[C@@H]5O)CC[C@]4(C)[C@H]3CC[C@]12C", "values": [{"measurement": "PI", "setting": "Pseudomonas aeruginosa [3]", "result": 3.5}]}, {"compound": "CC(=O)NC1C(SCCCCCCOC2CCC3(C)C(=CCC4C3CCC3(C)C(C(C)CCCC(C)C)CCC43)C2)OC(CO)C(O)C1O", "note": "(stereo in doubt; form 2) [listing 1 of 2 here]", "values": [{"measurement": "Log PI", "setting": "[1]", "result": 0}]}, {"compound": "CC(C)CCCC(C)[C@H]1CC[C@H]2C3CC=C4C[C@@H](OCCCCCCS[C@@H]5O[C@@H](CO)[C@@H](O)[C@H](O)[C@@H]5O)CC[C@]4(C)[C@H]3CC[C@]12C", "note": "(stereo in doubt; form 2)", "values": [{"measurement": "Log PI", "setting": "Mus musculus [12]", "result": 0}, {"measurement": "Log PI", "setting": "[13]", "result": 0}]}, {"compound": "CC(=O)N[C@@H]1C(O)O[C@@H](CO)[C@@H](O)[C@@H]1O[C@@H](C)C(=O)N[C@@H](C)C(=O)N[C@@H](CCC(=O)O)C(N)=O", "note": "(some centres not stated)", "values": [{"measurement": "PI", "setting": "Mus musculus [14]", "result": "1.87 and 1.31"}, {"measurement": "PI", "setting": "Mus musculus [15]", "result": 1.31}, {"measurement": "Log PI", "setting": "[1]", "result": 0.27}]}, {"compound": "CC(C)CCCC(C)C1CCC2C3CC=C4CC(OCCCCCCCCSC5OC(CO)C(O)C(O)C5O)CCC4(C)C3CCC12C", "note": "(configuration not stated)", "values": [{"measurement": "PI", "setting": "Pseudomonas aeruginosa [3]", "result": 0.58}]}, {"compound": "CC(=O)NC1C(SCCCCCCOC2CCC3(C)C(=CCC4C3CCC3(C)C(C(C)CCCC(C)C)CCC43)C2)OC(CO)C(O)C1O", "note": "(stereo in doubt; form 2) [listing 2 of 2 here]", "values": [{"measurement": "No. of Colony forming Units", "setting": "Pseudomonas aeruginosa [4]; 40 mg/kg", "result": "56.7 and 75"}]}, {"compound": "CC(C)CCCC(C)C1CCC2C3CC=C4CC(OCCCCSC5OC(CO)C(O)C(O)C5O)CCC4(C)C3CCC12C", "note": "(configuration not stated)", "values": [{"measurement": "PI", "setting": "Pseudomonas aeruginosa [3]", "result": 0.84}]}, {"compound": "CC(=O)NC1C(SCCCCCCOC2CCC3(C)C(=CCC4C3CCC3(C)C(C(C)CCCC(C)C)CCC43)C2)OC(CO)C(O)C1O", "note": "(stereo in doubt; form 1) [listing 2 of 2 here]", "values": [{"measurement": "Log PI", "setting": "Mus musculus [12]", "result": 0}]}, {"compound": "CC(C)CCCC(C)[C@H]1CC[C@H]2C3CC=C4C[C@@H](OCCCCCCS[C@@H]5O[C@@H](CO)[C@@H](O)[C@H](O)[C@@H]5O)CC[C@]4(C)[C@H]3CC[C@]12C", "note": "(stereo in doubt; form 1) [listing 2 of 2 here]", "values": [{"measurement": "Log PI", "setting": "[1]", "result": 0}]}, {"compound": "COCC1OC(SCCCCCCOC2CCC3(C)C(=CCC4C3CCC3(C)C(C(C)CCCC(C)C)CCC43)C2)C(O)C(O)C1O", "note": "(configuration not stated)", "values": [{"measurement": "PI", "setting": "Pseudomonas aeruginosa [3]", "result": 0.53}]}, {"compound": "CC(C)CCCC(C)C1CCC2C3CC=C4CC(OCCCCCCSC5OC(CN)C(O)C(O)C5O)CCC4(C)C3CCC12C", "note": "(configuration not stated)", "values": [{"measurement": "PI", "setting": "Pseudomonas aeruginosa [3]", "result": 0.98}]}]}
